Measurements: patent US20030118577A1, “Use of analogues of superoxide dismutase for treating hepatocellular insufficiencies” (priority 2000, published 2003)

System: acute hepatic insufficiency induced by acetaminophen
Experiment: Survival of mice after intraperitoneal acetaminophen (acute hepatic insufficiency)
Description: The intraperitoneal injection of acetaminophen into mice induces a severe hepatotoxicity, the degree of which may be evaluated by the survival of the animals, measuring transaminase activities, and macroscopic and microscopic examination of the livers.
The acetaminophen in solution at 100 mg/ml in PBS at pH 7.4 is administered by the intraperitoneal route.
In a first series of experiments, a group of mice received a dose of 1000 mg/kg of acetaminophen; a second group received a dose of 1000 mg/kg of acetaminophen and a dose of 10 mg/kg of MnTBAP administered either 2 h before the acetaminophen or 6 h after; a control group received either MnTBAP alone (10 mg/kg), or PBS alone.
The survival of the animals is monitored for 24 hours after the administration of acetaminophen.
The effect of N-acetyl-L-cysteine (NAC), of CuDIPS, and of MnTBAP on the survival of mice after intraperitoneal injection of 1000 mg/kg of acetaminophen (APAP) was compared.
MnTBAP, NAC, or CuDIPS are administered in the form of a bolus, preventively, 2 hours before (P) or, curatively, 6 hours after (C) the acetaminophen.
The survival of the animals is monitored for 24 hours after administration of acetaminophen.

Compound: O=C(O)c1ccc(-c2c3nc(c(-c4ccc(C(=O)O)cc4)c4ccc([n-]4)c(-c4ccc(C(=O)O)cc4)c4nc(c(-c5ccc(C(=O)O)cc5)c5ccc2[n-]5)C=C4)C=C3)cc1.[Mn+3] [MnTBAP, Mn(III) tetrakis(5,10,15,20-benzoic acid)porphyrin]
- percentage of surviving animals (Group V: APAP 1000 mg/kg, MnTBAP 10 mg/kg (P), time 17 h): 68.6%
- percentage of surviving animals (Group V: APAP 1000 mg/kg, MnTBAP 10 mg/kg (P), time 18 h): 65.7%
- percentage of surviving animals (Group V: APAP 1000 mg/kg, MnTBAP 10 mg/kg (P), time 20 h): 65.7%
- percentage of surviving animals (Group V: APAP 1000 mg/kg, MnTBAP 10 mg/kg (P), time 22 h): 65.7%
- percentage of surviving animals (Group V: APAP 1000 mg/kg, MnTBAP 10 mg/kg (P), time 24 h): 62.9%
- percentage of surviving animals (Group VI: APAP 1000 mg/kg, MnTBAP 20 mg/kg (P), time 0 h): 100%
- percentage of surviving animals (Group VI: APAP 1000 mg/kg, MnTBAP 20 mg/kg (P), time 6 h): 100%
- percentage of surviving animals (Group VI: APAP 1000 mg/kg, MnTBAP 20 mg/kg (P), time 8 h): 100%
- percentage of surviving animals (Group VI: APAP 1000 mg/kg, MnTBAP 20 mg/kg (P), time 9 h): 100%
- percentage of surviving animals (Group VI: APAP 1000 mg/kg, MnTBAP 20 mg/kg (P), time 10 h): 100%
- percentage of surviving animals (Group VI: APAP 1000 mg/kg, MnTBAP 20 mg/kg (P), time 11 h): 100%
- percentage of surviving animals (Group VI: APAP 1000 mg/kg, MnTBAP 20 mg/kg (P), time 12 h): 100%
- percentage of surviving animals (Group VI: APAP 1000 mg/kg, MnTBAP 20 mg/kg (P), time 13 h): 100%
- percentage of surviving animals (Group VI: APAP 1000 mg/kg, MnTBAP 20 mg/kg (P), time 14 h): 100%
- percentage of surviving animals (Group VI: APAP 1000 mg/kg, MnTBAP 20 mg/kg (P), time 15 h): 90%
- percentage of surviving animals (Group VI: APAP 1000 mg/kg, MnTBAP 20 mg/kg (P), time 16 h): 90%
- percentage of surviving animals (Group VI: APAP 1000 mg/kg, MnTBAP 20 mg/kg (P), time 17 h): 90%
- percentage of surviving animals (Group VI: APAP 1000 mg/kg, MnTBAP 20 mg/kg (P), time 18 h): 90%
- percentage of surviving animals (Group VI: APAP 1000 mg/kg, MnTBAP 20 mg/kg (P), time 20 h): 90%
- percentage of surviving animals (Group VI: APAP 1000 mg/kg, MnTBAP 20 mg/kg (P), time 22 h): 90%
- percentage of surviving animals (Group VI: APAP 1000 mg/kg, MnTBAP 20 mg/kg (P), time 24 h): 90%
- percentage of surviving animals (Group VII: APAP 1000 mg/kg, MnTBAP 10 mg/kg (C), time 0 h): 100%
- percentage of surviving animals (Group VII: APAP 1000 mg/kg, MnTBAP 10 mg/kg (C), time 6 h): 100%
- percentage of surviving animals (Group VII: APAP 1000 mg/kg, MnTBAP 10 mg/kg (C), time 8 h): 100%
- percentage of surviving animals (Group VII: APAP 1000 mg/kg, MnTBAP 10 mg/kg (C), time 9 h): 100%
- percentage of surviving animals (Group VII: APAP 1000 mg/kg, MnTBAP 10 mg/kg (C), time 10 h): 94%
- percentage of surviving animals (Group VII: APAP 1000 mg/kg, MnTBAP 10 mg/kg (C), time 11 h): 94%
- percentage of surviving animals (Group VII: APAP 1000 mg/kg, MnTBAP 10 mg/kg (C), time 12 h): 81%
- percentage of surviving animals (Group VII: APAP 1000 mg/kg, MnTBAP 10 mg/kg (C), time 13 h): 69%
- percentage of surviving animals (Group VII: APAP 1000 mg/kg, MnTBAP 10 mg/kg (C), time 14 h): 69%
- percentage of surviving animals (Group VII: APAP 1000 mg/kg, MnTBAP 10 mg/kg (C), time 15 h): 69%
- percentage of surviving animals (Group VII: APAP 1000 mg/kg, MnTBAP 10 mg/kg (C), time 16 h): 56%
- percentage of surviving animals (Group VII: APAP 1000 mg/kg, MnTBAP 10 mg/kg (C), time 17 h): 56%
- percentage of surviving animals (Group VII: APAP 1000 mg/kg, MnTBAP 10 mg/kg (C), time 18 h): 56%
- percentage of surviving animals (Group VII: APAP 1000 mg/kg, MnTBAP 10 mg/kg (C), time 20 h): 56%
- percentage of surviving animals (Group VII: APAP 1000 mg/kg, MnTBAP 10 mg/kg (C), time 22 h): 56%
- percentage of surviving animals (Group VII: APAP 1000 mg/kg, MnTBAP 10 mg/kg (C), time 24 h): 44%
- percentage of surviving animals (Group VIII: APAP 1000 mg/kg, MnTBAP 20 mg/kg (C), time 0 h): 100%
- percentage of surviving animals (Group VIII: APAP 1000 mg/kg, MnTBAP 20 mg/kg (C), time 6 h): 100%
- percentage of surviving animals (Group VIII: APAP 1000 mg/kg, MnTBAP 20 mg/kg (C), time 8 h): 100%
- percentage of surviving animals (Group VIII: APAP 1000 mg/kg, MnTBAP 20 mg/kg (C), time 9 h): 100%
- percentage of surviving animals (Group VIII: APAP 1000 mg/kg, MnTBAP 20 mg/kg (C), time 10 h): 100%
- percentage of surviving animals (Group VIII: APAP 1000 mg/kg, MnTBAP 20 mg/kg (C), time 11 h): 100%
- percentage of surviving animals (Group VIII: APAP 1000 mg/kg, MnTBAP 20 mg/kg (C), time 12 h): 90%
- percentage of surviving animals (Group VIII: APAP 1000 mg/kg, MnTBAP 20 mg/kg (C), time 13 h): 90%
- percentage of surviving animals (Group VIII: APAP 1000 mg/kg, MnTBAP 20 mg/kg (C), time 14 h): 90%
- percentage of surviving animals (Group VIII: APAP 1000 mg/kg, MnTBAP 20 mg/kg (C), time 15 h): 90%
- percentage of surviving animals (Group VIII: APAP 1000 mg/kg, MnTBAP 20 mg/kg (C), time 16 h): 90%
- percentage of surviving animals (Group VIII: APAP 1000 mg/kg, MnTBAP 20 mg/kg (C), time 17 h): 80%
- percentage of surviving animals (Group VIII: APAP 1000 mg/kg, MnTBAP 20 mg/kg (C), time 18 h): 80%
- percentage of surviving animals (Group VIII: APAP 1000 mg/kg, MnTBAP 20 mg/kg (C), time 20 h): 70%
- percentage of surviving animals (Group VIII: APAP 1000 mg/kg, MnTBAP 20 mg/kg (C), time 22 h): 70%
- percentage of surviving animals (Group VIII: APAP 1000 mg/kg, MnTBAP 20 mg/kg (C), time 24 h): 70%
- death of animals (MnTBAP alone 10 mg/kg ip, no acetaminophen, 24 hours): No death
